US10668027B1, “Method of treating Acanthamoeba infection using allopurinol” (University of South Florida, priority 2014, dated 2020)
Like-named read-outs stand apart in the source and are kept apart here.

Tests used:
[1] = test system: Naegleria fowleri strain Nf69 (ATCC 30215); assay: LDH cytotoxicity assay of N. fowleri amoebae co-cultured with CHO cells; conditions: ATCC30215, CHO, 13 h, read-out: IC50, protection from N. fowleri cytotoxicity
Method: Naegleria fowleri strain Nf69 (ATCC 30215) was cultivated at about 33° C. in modified Nelson's medium (about 1 mM Na2HPO4, about 1 mM KH2PO4, about 2.05 mM NaCl, about 16.2 μM MgSO4, about 27.2 μM CaCl2), about 0.17 g/L DIFCO Liver infusion broth, about 9.4 mM glucose) supplemented with about 10% heat-inactivated fetal bovine serum. For cytotoxicity assays, Chinese hamster ovary (CHO) cells were grown at about 37° C. in DMEM medium supplemented with about 10% fetal bovine serum until cultures reached about 70-80% confluency. Subsequently cultures were infected with N. fowleri cells at a ratio of 1 N. fowleri amoeba per 5-10 CHO cells and co-cultivated overnight for about 13 hours at about 37° C. The cytotoxicity effect of N. fowleri amoebae on CHO cells was measured by an LDH-based cytotoxicity assay that quantifies the release of lactate dehydrogenase (LDH) from dead cells at 490 nm wavelength absorbance for calculation of amoeba-induced cytotoxicity to the mammalian host cells.
Cytotoxicity of Naegleria fowleri amoebae was measured with CHO cells co-cultured with N. fowleri for about 13 hours at about 37° C. using the LDH cytotoxicity assay (infection ratio of 1 amoeba cell per 5-10 CHO cells) as described above.

[2] = biological target: T1, N. fowleri Nfa-1 hemerythrin (Naegleria fowleri, UniProt Q9NH76); assay: biochemical
T1 construct: made in house; host or cells: E. coli
T1 sequence (Q9NH76 whole entry): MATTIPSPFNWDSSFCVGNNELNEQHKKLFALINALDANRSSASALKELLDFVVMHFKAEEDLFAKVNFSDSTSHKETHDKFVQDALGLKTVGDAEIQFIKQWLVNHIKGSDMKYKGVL
Text: (§1) The N. fowleri Nfa-1 gene (360 bp, GenBank Accession No. AF230370) was amplified by PCR from genomic N. fowleri DNA using PCR primers that included the Nde1 and Sap1 restriction enzyme sites for subsequent cloning into the Nde1 and Sap1 sites of the bacterial expression vector pTwin1 (forward primer with Nde1 site underlined; ATG start codon is indicated in bold: SEQ ID NO: 1 5′-[…]-3′, reverse primer with Sap1 site underlined: SEQ ID NO: 2 5′-[…]-3′), which contained a thiol-inducible intein protease fused to a chitin-binding domain. Recombinant Nfa-1 protein was produced in E. coli and purified by chitin-agarose chromatography followed by cleavage and elution of the purified Nfa-1 protein by 40 mM dithiothreitol (DTT) and subsequent size-exclusion chromatography purification.
(§2) Enzymatic oxidase activity, kinetics and pharmacological drug inhibition assays of recombinant N. fowleri Nfa-1 hemerythrin were determined in vitro using NADH or NADPH as the substrate and electron donor and ferricyanide as electron acceptor. Various drugs and inhibitors specific for xanthine oxidase-like enzymes, NAD(P)H oxidases, or NADH peroxidase were included in the pharmacological inhibition assays.

[3] = biological target: T1, N. fowleri Nfa-1 hemerythrin; assay: Initial-rate enzyme kinetics of Nfa-1 hemerythrin using NADH or NADPH as substrates; assay type: biochemical; conditions: substrate 10-200 μM, ferricyanide 200 μM, 40 sec at 23° C., Michaelis-Menten analysis; for Km: read-out: apparent Km
Text: as §1, §2
Enzyme kinetics were determined using NADH or NADPH at 10-200 μM concentration as electron donor and ferricyanide (200 μM) as electron acceptor for initial-rate enzyme kinetics of 40 sec at 23° C.

[4] = test system: Acanthamoeba castellani (ATCC strain 50370); assay: microbe, parasite or virus in culture; conditions: Acanthamoeba castellanii, ATCC50370, CHO, 19 h, read-out: IC50, protection against A. castellani cytotoxicity
[5] = recombinant N. fowleri Nfa-1 oxidase in vitro, read-out: Ki, inhibition of Nfa-1 enzyme activity

SMILES	IC50 [1] [µM]	Ki [2] [µM]	Ki [2, 5] [µM]	also measured
c1ccc2c(c1)[I+]c1ccccc1-2 [DPI, diphenyleneiodonium chloride]	49	19	–	–
NC(=O)C1=CN([C@@H]2O[C@H](COP(=O)(O)OP(=O)(O)OC[C@H]3O[C@@H](n4cnc5c(N)ncnc54)[C@H](O)[C@@H]3O)[C@@H](O)[C@H]2O)C=CC1 [NADH]	–	–	–	apparent kat [3]: 4.4 s⁻¹; Km [3]: 64.5 µM
O=[N+]([O-])[O-].[Ag+] [AgNO3]	–	–	345	–
Oc1ncnc2[nH]ncc12 [Allopurinol]	48	–	134	IC50 [4]: 620 µM
O=c1[nH]cnc2nc[nH]c12 [hypoxanthine]	497	1000	–	–
NC(=O)C1=CN([C@@H]2O[C@H](COP(=O)(O)OP(=O)(O)OC[C@H]3O[C@@H](n4cnc5c(N)ncnc54)[C@H](OP(=O)(O)O)[C@@H]3O)[C@@H](O)[C@H]2O)C=CC1 [NADPH]	–	–	–	apparent kat [3]: 3.3 s⁻¹; Km [3]: 22.3 µM
O=C(O)c1cc[c]([Hg][OH])cc1 [pHMB, para-hydroxymercuribenzoate]	–	78	–	–
COc1cc(C(C)=O)ccc1O [Apocynin]	15	–	17	IC50 [4]: 174 µM
OO [Formula H2O2, H2O2]	–	–	–	stimulation of Nfa-1 enzyme activity ([2]; NADH peroxidase activator, FIG. 9): 9.7%
